Data set [1] concerns NF-κB. The data set can be described thus: EMSA of NF-κB translocation / DNA binding in A549 cells. The note with it: for inducing NF-κB translocation: nuclear extracts of treated A549 lung cancer cells. A general note: Mobility shift assays separate free from complexed probe on a gel.
For data set [2], the system named is mice treated with total body gamma radiation. The data set can be described thus: Mouse survival after total body gamma irradiation (radioprotection). The data set is classed as in vivo. To be noted: for 30-day survival, 11 Gy / 30-day survival, 14 Gy: s.c. 5.0 μg/mouse (0.2 mg/kg); for 30-day survival, 11 Gy: 1 hour before 11 Gy; for 30-day survival, 14 Gy: 1 hour before 14 Gy. On the procedure:
Whole body irradiation of mice with 15 Gy gamma radiation caused death within 8 days from GI syndrome providing a conventional model of radiation induced damage of GI tract. To test whether flagellin was capable of protecting GI epithelium from IR, we tested the effect of i.v.-injected flagellin on the dynamics of mouse lethality after 15 Gy of radiation. […] Irradiation was done 4 hours post treatment. As expected, control irradiated mice (that received PBS i.v.) died between 5 and 8 days post-treatment. […] Intravenous, intraperitoneal and subcutaneous delivery of 0.2 mg/kg of flagellin followed by 13 Gy irradiation afforded similar degree of protection, leading to 85-90% 30-day survival of mice (data not shown). While not being bound by theory, flagellin may be a radioprotectant due to its activation of NF-κB, which presumably acts as an inhibitor of apoptotic death.
The experiments were done similarly to the above-described ones (FIGS. 14 and 15), however, instead of 15Gy, mice received 10Gy, the dose that caused 100% killing in control group by day 13 (FIG. 6).
In order to further estimate the dependence of radioprotective activity of flagellin on the time of treatment, mice were injected at several time points relative to the moment of gamma-irradiation. Experiments were performed essentially as explained above, using intraperitoneal injection of 5 μg/mouse (0.2 mg/kg) of full-length flagellin or, for control mice, 5 μg/mouse (0.2 mg/kg) of bacterial RNA polymerase. The experiments were performed using the NIH-Swiss mouse strain. […] Only −1 h graph is shown for clarity, however, both timepoints (−1 and −2 h) provide similar degree and dynamics of survival.
We next obtained an estimate of radiation dose-dependent protection for flagellin. As shown above (FIG. 7), treatment with flagellin was sufficient for 100% protection against 10 Gy gamma-irradiation (this dose causes death from hematopoietic syndrome) and 90% 30-day survival at 13 Gy (both hematopoietic and GI syndromes). Experiments were performed as described above, using flagellin 5 μg/mouse (0.2 mg/kg), intraperitoneally injected 1 h before irradiation.
As shown above, full-length flagellin provides protection from both hematopoietic and gastrointestinal syndromes. The radioprotective potential of flagellin fragments was similarly tested after gamma-irradiation with 11 Gy (dose that induces hematopoietic syndrome-associated mortality in mice) or 14 Gy (dose that causes death from GI syndrome). Mice (10 animals per group) were injected subcutaneously with 5.0 μg/mouse (0.2 mg/kg) of flagellin or its fragments, AA′ or BB′, and gamma-irradiated 1 hour later.
In order to explore the limits of radioprotection provided by the AA′ fragment, we irradiated mice with 17 Gy and 20 Gy single doses of total body gamma-radiation.
(§1) We tested the ability of AA′ to protect mice that were exposed to it. A group of 20 NIH-Swiss mice were subcutaneously injected with 5 μg/mouse (0.2 mg/kg) of AA′. A second injection of a equal dose of AA′ was administered after 21 (10 mice) and 28 days (another 10 mice), with the time elapsed being sufficient for formation of antibodies. The second injection of AA′ was followed by 13 Gy of whole-body gamma irradiation (1 h post-injection).
Repetitive irradiation within a short period of time may be common, for example, in space radiation events and in clinical radiotherapy regimens. We tested the ability of the AA′ flagellin fragment to protect mice from sub-lethal (4 treatments of 3 Gy) and 100% lethal (4 treatments of 4 Gy) regimens of fractionated gamma-irradiation. Fragment AA′ or saline buffer was given to NIH-Swiss female mice before every irradiation (once a day for 4 days). AA′ was administered as described above for single-dose irradiation (5 μg/mouse, given subcutaneously 1 h before irradiation). […]
We have extensively confirmed that AA′ protects NIH-Swiss and ICR mice from radiation. […]

Data set [3] deals with NF-κB. The data set can be described thus: NF-κB-regulated luciferase reporter assay in H116 human colon cancer cells. The data set is classed as cell-based. The note with it: for activation of NF-κB-regulated luciferase reporter: H116 cells, luciferase measured six hours after addition. The text has this: While translocation of NF-κB to the nucleus is a crucial step in induction of NF-κB-regulated inhibitors of apoptosis, it is not sufficient in itself. To directly test the ability of selected fragments to induce expression of NF-κB-regulated genes, we performed reporter assay experiments. Flagellin and the AA′, BB′, A′ and B′ fragments were used for treatment of H116 human colon cancer cells carrying luciferase gene under a NF-κB-responsive promoter. The reporter construct contained three NF-κB-binding sites from the E-selectin promoter combined with a Hsp70 minimal promoter that is routinely used for the detection of NF-κB status of cells. Luciferase activity was measured in cell lysates six hours after addition of flagellin or its truncated fragments into the medium. TNF was used as positive control.
In order to study the ability of the AA′ fragments to directly activate NF-κB-regulated transcription, we performed reporter assay experiments as described above for a wide range of concentrations of flagellin, original AA′ and AA′-derived fragments.
Background: A reporter such as luciferase makes a cellular process visible.

In another data set the test system is NIH-Swiss mice. The data set is classed as in vivo, mouse. The note with it: repeated administration.
From the text: Overall immunogenicity of a protein may determines its suitability for repeated use. Antibodies generated by immune system are capable of reducing the therapeutic activity of the protein and also may induce anaphylactic reaction upon second exposure if IgE antibodies are produced against the protein. Thus, any reduction in the amount and variety of antibodies compared to full-length flagellin is an improvement. Accordingly, after repeated introduction of flagellin or its fragments we monitored; a) efficiency of radioprotection afforded at second exposure; b) local and general allergic reactions; and c) antibody titer.
as §1

Data set [4] is classed as in vivo, mouse. The note with it: for antibody level at 21 day: 21 days after injection. On the procedure:
as §1
We also performed an ELISA determination of antibody titers in order to quantify the effect that AA′ has on the immune status of the organism. 96-well plates were coated with flagellin or AA′, […], […], and incubated overnight at +4° C. Blood serum samples collected from mice were added to the wells in several dilutions and incubated overnight followed by 6 hrs reaction with secondary goat anti-mouse IgG HPO-conjugate antibodies. Measurements were performed using a spectrophotometer with a 414 nm filter.

Where [5] appears, read: 5 μg/mouse (0.2 mg/kg) i.p. 1 h before 15 Gy.
The mark [6] stands for this setting: 5 μg/mouse i.p. 1 h before irradiation, estimate.

What is called mortality is the percentage killed. A higher mortality goes with a strong lethal effect.

With “flagellin: Salmonella dublin FliC flagellin, 505 amino acids, SEQ ID NO: 1; recombinant full-length protein”, in the data set with NF-κB [1] (EMSA), the “inducing NF-κB translocation” value is listed as “capable of inducing NF-κB translocation”. For the same substance, in data set [2] (setting [5]), the “7-day survival at 15 Gy” value came to 100% and the “30-day survival at 15 Gy” value worked out at 0%. Besides, in data set [2] (setting [6]), the DMF30 was 1.75-1.8 and the “LD50/30 (radiation dose, flagellin-treated mice)” value is 13.5-14 Gy. In data set [2] (5 μg/mouse, 10Gy), the “protection from 10Gy (HP syndrome)” value is recorded as “complete protection”. In data set [2] (50 μg by gavage 1 h before 13 Gy), the “protection against radiation by gavage delivery” value was “No protection”. Also, in data set [2] (0.2 mg/kg i.v., i.p., i.m. or s.c., 1 hr before 13 Gy, NIH-Swiss), the “30-day survival, parenteral routes” value is 85-90%. In addition, in data set [2] (0.2 mg/kg intravenous, intraperitoneal or subcutaneous, followed by 13 Gy), the “30-day survival of mice” value is reported as 85-90%. The “protection against 10 Gy gamma-irradiation” value in data set [2] (10 Gy (hematopoietic syndrome)) worked out at 100%. Further, in data set [2] (13 Gy), the “30-day survival at 13 Gy” value came out at 90%. Besides, the “protection from 10 Gy” value in data set [2] (administered 24 hours before 10 Gy) amounted to 100%. In addition, the “survival after 13 Gy irradiation” value in data set [2] (i.p. 5 μg/mouse (0.2 mg/kg), injected 1 or 2 hours before, NIH-Swiss mice) is given as about 90%. For the same substance, the “protection, 4 h timepoint” value in data set [2] (i.p. 5 μg/mouse, injected 4 h before 13 Gy, NIH-Swiss) is “somewhat lower protection”. For the same substance, in data set [2] (i.p. 5 μg/mouse, injected 24 hours before 13 Gy), the “protective effect against 13 Gy induced death” value is recorded as “no protective effect”. The “survival after 15 Gy” value in data set [2] (i.v., irradiation 4 hours post treatment, 15 Gy, PBS controls died between 5 and 8 days) is “lived significantly longer”. Further, the “radioprotectant effect from 13Gy” value in data set [2] (injected 1-4 h before 13Gy) is reported as “effective as a radioprotectant”. Also, the “approximate DMF (30-day survival)” value in data set [2] (mouse, in vivo) is on record as “greater than 1.5”. In data set [2], the “30-day survival, 11 Gy” value is given as 100% and the “30-day survival, 14 Gy” value stood at 100%. Also, the “activation of NF-κB-regulated luciferase reporter” value with NF-κB [3] is reported as “capable of NF-κB activation”. In addition, the “local allergic reaction or anaphylaxis” value in the data set on NIH-Swiss mice was “no local allergic reaction or anaphylaxis”. Further, the “antibody level at 21 day” value in data set [4] (serum) is “around 20 mg/ml”. Further, the “antibody level at 28 days” value in data set [4] (serum, 28 days after injection) is reported as “around 20 mg/ml”.
Regarding “AA′: flagellin fragment (1-177)-Linker-(402-505), SEQ ID NO: 8”, in the data set on NF-κB [1] (A549 cells, 1 μg/ml, 45 min, EMSA of whole cell extracts), the “NF-κB Stimulation” value is recorded as “Yes”. Also, in the data set on NF-κB [1] (EMSA, A549 cells), the “level of NF-κB translocation, fragments versus flagellin” value is “comparable”. Besides, the “inducing NF-κB translocation” value in the data set on NF-κB [1] (EMSA) is “capable of inducing NF-κB translocation”. Moreover, the “protection against fractionated gamma-irradiation” value in data set [2] (5 μg/mouse s.c. 1 h before every irradiation, 4 treatments of 3 Gy or 4 Gy, NIH-Swiss female mice) is “significant protection”. Further, the “survival at day 10, Balb/c mice” value in data set [2] (0.2 mg/kg 30 minutes before 10 Gy, vehicle 0%) turned out to be 100%. Also, the “time of mortality at 17 Gy” value in data set [2] (17 Gy, control mice 6-7 day mortality) lay in the range of 10 to 15 days. In addition, the “delay of death after supralethal irradiation” value in data set [2] (17 and 20 Gy, versus inactive fragment control) is “significantly delayed”. For the same substance, the “survival at day 30, all tested strains” value in data set [2] (129/Sv, DBA/2, Balb/c, CD2F1, 0.2 mg/kg 30 minutes before 10 Gy, vehicle 0-25%) is listed as 50-100%. For the same substance, the “effect of NS398 on radioprotection” value in data set [2] (LPS 2 mg/kg or AA′ 0.2 mg/kg s.c. 1 hr before 13 Gy, with NS398 1 mg/kg i.p., NIH-Swiss) was “not”. Besides, in data set [2], the “30-day survival, 11 Gy” value is given as 100% and the “30-day survival, 14 Gy” value is listed as 100%. The “30-day survival after second exposure to AA′” value in data set [2] (second s.c. injection 0.2 mg/kg after 21 or 28 days, 13 Gy 1 h post-injection, NIH-Swiss) was 100%. Also, the “mortality at 17 Gy” value in data set [2] (single dose 17 Gy total body) stood at 100%. In addition, the “mortality at 20 Gy” value in data set [2] (single dose 20 Gy total body) is on record as 100%. Besides, in the data set on NF-κB [3], the “activation of NF-κB-regulated luciferase reporter” value is given as “capable of NF-κB activation”. In addition, the “level of NF-κB-regulated transcription relative to flagellin” value with NF-κB [3] (reporter assay, over the studied range of concentrations) was “comparable to such of flagellin”. Besides, the “NF-κB reporter activity relative to flagellin” value with NF-κB [3] (very low concentration range) is “more active than flagellin”. The “local allergic reaction or anaphylaxis” value in the data set with NIH-Swiss mice is recorded as “no local allergic reaction or anaphylaxis”. Besides, in data set [4] (AA′ versus flagellin), the “immunogenicity of the original protein removed” value was over 95% and the “reduction of immunogenicity compared to the original protein” value is on record as “approximately 25 ×”. Also, in data set [4] (serum), the “increase of antibody level at 28 days over 21 day” value is listed as “about 10%” and the “antibody level at 21 day” value is about 0.8 mg/mL.

The record behind these values is patent publication US8580321B2, “Method for reducing the effects of chemotherapy using flagellin related polypeptides” (priority 2003, dated 2013).
